Experimental data reported in patent US6686380B2, “Treatment of refractory tumors using epothilone derivatives” (Bristol-Myers Squibb Company, priority 2001, dated 2004).

How the values were obtained:
[1] = system: panel of tumor cell lines; assay: In vitro cytotoxicity, tetrazolium-based colorimetric assay; conditions: read-out: median cytotoxic concentration (IC50 values); 21 cell lines tested; 72 h incubation; FIG. 1
Description: (§4) For administration to rodents, the subject compound was administered in either 1:9 ethanol/water, or 1:1:8 Cremophor®/ethanol/water. Final dilution for parenteral administration was made with water one hour before administration. Final dilution for oral administration was made with 0.25 M sodium phosphate buffer. Paclitaxel was dissolved in a 50/50 mixture of ethanol and Cremophor® and maintained at 4° C. Final dilution was made immediately prior to injection to prevent undesirable precipitation. Tumor cell lines HCT 116 human carcinoma and HCT116/V/M46 cells were maintained on McCoy's medium and 10% heat-inactivated fetal bovine serum. A2780 human ovarian carcinoma cells and A2780Tax cells were maintained in IMEM and 10% heat-inactivated fetal bovine serum. All other cell lines were maintained in RPM11640 medium with 10% heat-inactivated fetal bovine serum.
The in vivo cytotoxicity was assessed in tumor cells by a tetrazolium-based colorimetric assay at 492 nm. The cells were seeded 24 h prior to drug addition. The reagents were added following a 72 h incubation with serially diluted test compound. Measurements were taken after a further three hours incubation. The results are expressed as median cytotoxic concentration (IC50 values).

[2] = system: HCT116/VM46, A2780Tax and Pat-7 cell lines; assay: Cytotoxicity against cell lines that had developed resistance to paclitaxel (FIG. 2); type: cell-based, human
Description: (§1) The concentration needed to kill 90% of clonogenic cancer cells (IC90) was determined.

[3] = system: human tumor xenografts; assay: Antitumor activity by oral route of administration; type: in vivo, mice or rats; conditions: two different human tumor xenografts
Description: as §4

[4] = system: Pat-7 human ovarian carcinoma; assay: In vivo antitumor testing, Pat-7 xenograft; parameters: species or system nude mice
From the text: (§2) In Vivo Antitumor Testing: The following human tumors were used: ovarian carcinoma A2780, A2780Tax and Pat-7 (established from an ovarian tumor biopsy from a patient who had developed resistance to paclitaxel); HCT116, HCT116/VM46 and LS174T colon carcinomas, Pat-21 breast carcinoma, and Pat-26 pancreatic carcinoma (from a liver metastasis biopsy). Pat-7, Pat-21 ad Pat-26 xenografts were established initially from primary tumor biopsies directly as xenotransplants grown in whole-body irradiated nude mice without any intervening in vitro cell culturing steps. The innately paclitaxel-insensitive murine fibrosarcoma M5076 was also employed. The human tumor xenografts were maintained in Balb/c nu/nu nude mice. M5076 was maintained in C57BL/6 mice. Tumors were propagated as subcutaneous transplants in the appropriate mouse strain using tumor fragments obtained from donor mice. Tumor passage occurred biweekly for murine tumors and approximately every two to eight weeks for the various human tumor lines. With regard to efficacy testing, M5076 tumors were implanted in (C57B1/6×DBA/2)F1 hybrid mice, and human tumors were implanted in nude mice. All tumor implants for efficacy testing were subcutaneous (sc).
The required number of animals needed to detect a meaningful response (6-8) were pooled at the start of the experiment and each was given a subcutaneous implant of a tumor fragment (˜50 mg) with a 13-gauge trocar. For treatment of early-stage tumors, the animals were again pooled before distribution to the various treatment and control groups. For treatment of animals with advanced-stage disease, tumors were allowed to grow to the pre-determined size window (tumors outside the range were excluded) and animals were evenly distributed to various treatment and control groups. Treatment of each animal was based on individual body weight. Treated animals were checked daily for treatment related toxicity/mortality. Each group of animals was weighed before the initiation of treatment (Wt1) and then again following the last treatment dose (Wt2).
Tumor weights (mg) were estimated from the formula: […]
The maximum tolerated dose (MTD) is defined as the dose level immediately above which excessive toxicity (i.e. more than one death) occurred. […] Activity is described at the OD.
Tumor response end-point was expressed in terms of tumor growth delay (T-C value), defined as the difference in time (days) required for the treated tumors (T) to reach a predetermined target size compared to those of the control group (C).

[5] = system: A2780 human ovarian carcinoma; HCT116 and LS 174T human colon carcinoma; assay: In vivo antitumor testing, paclitaxel-sensitive xenografts; parameters: species or system nude mice; conditions: three paclitaxel-sensitive human tumor xenografts
From the text: as §2, with “Tumor passage occurred biweekly for murine tumors and approximately every two to eight weeks for the various human tumor lines. With regard to efficacy testing, M5076 tumors were implanted in (C57B1/6×DBA/2)F1 hybrid mice, and human tumors were implanted in nude mice. All tumor implants for efficacy testing were subcutaneous (sc).” left out
(§3) The required number of animals needed to detect a meaningful response (6-8) were pooled at the start of the experiment and each was given a subcutaneous implant of a tumor fragment (˜50 mg) with a 13-gauge trocar. […] For treatment of animals with advanced-stage disease, tumors were allowed to grow to the pre-determined size window (tumors outside the range were excluded) and animals were evenly distributed to various treatment and control groups. […]

[6] = system: tubulin isolated from calf brain; assay: Tubulin polymerization assay; type: biochemical; conditions: based on EC0.01
Description: Tubulin polymerization assay: the potency required for the test compound and paclitaxel to polymerize tubulin isolated from calf brain was evaluated by published techniques. The effective concentration (EC0.01) was defined as the interpolated concentration capable of inducing an initial slope of optical density (OD) of 0.01 OD/minute rate and is calculated using the formula: EC0.01=concentration/slope. EC0.01 values are expressed as the mean with standard deviation obtained from 3 different concentrations.

[7] = system: HCT116 and A2780 tumor cell lines; assay: Clonogenic cell colony-formation assay, paclitaxel-sensitive lines; type: cell-based, human; conditions: two sensitive tumor cell lines (HCT116 and A2780)
Description: as §1

[8] = system: Pat-7, A2780Tax, HCT116/VM46, Pat-21 and M5076 tumors; assay: In vivo antitumor testing, paclitaxel-resistant tumors; parameters: species or system mice; conditions: all five paclitaxel-resistant tumors (four human and one murine)
From the text: as §2, with “Tumor passage occurred biweekly for murine tumors and approximately every two to eight weeks for the various human tumor lines. With regard to efficacy testing, M5076 tumors were implanted in (C57B1/6×DBA/2)F1 hybrid mice, and human tumors were implanted in nude mice. All tumor implants for efficacy testing were subcutaneous (sc).” left out
as §3

[9] = system: clonogenic tumor cells; assay: Clonogenic cell colony-formation assay (IC90); type: cell-based; conditions: clonogenic cytotoxicity assay; read-out: concentration needed to kill 90% of clonogenic cancer cells (IC90)
Description: Clonogenic cell colony-formation assay: the potency required for the test compound and paclitaxel to kill clonogenic tumor cells (cells that are able to divide indefinitely to form a colony) in vitro was evaluated by a colony formation assay. The concentration needed to kill 90% of clonogenic cancer cells (IC90) was determined.

[10] = system: human tumor xenografts; conditions: general statement; cited from earlier work

| SMILES | IC50 [1] [nM] | retention of cytotoxic potency in resistant versus sensitive lines ([2]; HCT116/VM46, A2780Tax and Pat-7 compared to the sensitive lines) | cytotoxicity compared with paclitaxel ([2]; three cell lines that had developed resistance to paclitaxel, FIG. 2) | antitumor activity given orally compared with IV administration [3] | LCK ([4]; PO, every 2 days x 5, at MTD, pH 8.0 buffered vehicle, first of two experiments) [LCK] | LCK ([4]; PO, every 2 days x 5, at MTD, pH 8.0 buffered vehicle, second of two experiments) [LCK] | oral antitumor activity ([4]; PO, every 2 days x 5 schedule) | antitumor activity compared with paclitaxel [5] | tubulin polymerization potency relative to paclitaxel [6] | potency in killing clonogenic cells compared with paclitaxel [7] | antitumor efficacy compared with paclitaxel [8] | IC90 [9] [nM] | activity when administered by the oral route [10] | LCK ([4]; IV, optimal dose and schedule, concomitantly tested, first of two experiments) [LCK] | LCK ([4]; IV, optimal dose and schedule, concomitantly tested, second of two experiments) [LCK] |
| --- | --- | --- | --- | --- | --- | --- | --- | --- | --- | --- | --- | --- | --- | --- | --- |
| C/C(=C\c1csc(C)n1)[C@@H]1CC2O[C@]2(C)CCC[C@H](C)[C@H](O)[C@@H](C)C(=O)C(C)(C)[C@@H](O)CC(=O)N1 (relative stereo) [test compound, [1 S-[1R*,3R*(E),7R*,10S*,11R*,12R*,16S*]]-7,11-1-Dihydroxy-8,8,10,12,16-pentamethyl-3-[1-methyl-2-(2-methyl-4-thiazolyl)ethenyl]-4-aza-17-oxabicyclo[14.1.0]heptadecane-5,9-dione] | 1.4 to 34.5 | almost completely retaining its cytotoxic potency | far better than paclitaxel | equivalent to that produced by IV drug administration | 3.1 | 2.5 | highly active orally | equivalent to paclitaxel | about 2.5 fold | similarly potent | more efficacious than paclitaxel | ~7.5 | – | – | – |
| CC(=O)O[C@H]1C(=O)[C@@]2(C)[C@H]([C@H](OC(=O)c3ccccc3)[C@]3(O)C[C@H](OC(=O)[C@H](O)[C@@H](NC(=O)c4ccccc4)c4ccccc4)C(C)=C1C3(C)C)[C@]1(OC(C)=O)CO[C@@H]1C[C@@H]2O [paclitaxel, reference compound] | – | – | – | – | – | – | – | – | – | – | – | – | typically inactive | 1.3 | 1.2 |
